Values of other authors in US7863273B2, “Process for the preparation of an optically active 5H-pyrrolo [3,4-B] pyrazine derivative” (Glenmark Generics Ltd., priority 2006, dated 2011).

Key:
[1] = system: pentetrazol-induced convulsions; settings: relative to zopiclone (racemate)
writhing reflex = settings: relative to zopiclone (racemate)
[2] = system: central benzodiazepine receptor sites; settings: relative to zopiclone (racemate)
[3] = not given; remark: listed apart in the source

SMILES: CN1CCN(C(=O)O[C@H]2c3nccnc3C(=O)N2c2ccc(Cl)cn2)CC1 [dextrorotatory isomer, (+)-(5S)-6-(chloropyridin-2-yl)-7-oxo-6,7-dihydro-5H-pyrrol[3,4-b]pyrazin-5-yl 4-methylpiperazine-1-carboxylate]
- potency of action: antagonist activity with respect to pentetrazol-induced convulsions [1]: approximately twice as active
- potency of action: writhing reflex test in mice (writhing reflex): approximately twice as active
- activity as compared to the racemate: approximately twice as active
- potency of action: affinity for central benzodiazepine receptor sites [2]: approximately twice as active
- toxicity as compared to the racemate [3]: lower toxicity

SMILES: CN1CCN(C(=O)O[C@@H]2c3nccnc3C(=O)N2c2ccc(Cl)cn2)CC1 (single isomer, unassigned) [laevorotatory isomer]
- potency of action: antagonist activity with respect to pentetrazol-induced convulsions [1]: almost inactive
- potency of action: writhing reflex test in mice (writhing reflex): almost inactive
- activity as compared to the racemate: almost inactive
- potency of action: affinity for central benzodiazepine receptor sites [2]: almost inactive
- toxicity as compared to the racemate [3]: more toxic than the racemate
